Measurements reported in patent publication US11964990B2, “1,3,4,7-tetrahydro-2H-pyrrolo[3′,2′:5,6]pyrido[2,3-b][1,4]oxazepine bcl-2 inhibitors” (AbbVie Inc., priority 2022, dated 2024).
pEC50: −log10 of the molar value.

How the values were obtained:
Molt-4 cells = assay: Cell viability counter screen assay (CellTiter-Glo) in Molt-4 cells; type: cell-based; conditions: 24 hours, 10% Human Serum, 50% decrease in cell viability
Excerpt: (§1) The acute lymphoblastic leukemia (ALL) human cell line RS4;11 (ATCC, Manassas VA) was used as the primary human cell line to assess the cellular activity of compound of the present Examples in vitro and their efficacy in vivo. BH3 profiling, a mitochondrial assay that classifies blocks in the intrinsic apoptotic pathway, has shown that RS4;11 cells were highly dependent on Bcl-2 protein for survival and were sensitive to a Bcl-2 inhibitor (Blood. 2008; 111(4):2300-2309). […] The acute lymphoblastic leukemia cell line Molt-4, which is derived from immature T-lymphoid cells (T-ALL), was used as a counter screen assay.
(§2) Frozen RS4;11 or Molt-4 cells (ATCC, Manassas, VA, USA) were thawed overnight in RPMI 1640 media (Thermo Fisher Scientific, Waltham, MA, USA) supplemented with 1% penicillin/streptomycin (Thermo Fisher Scientific, Waltham, MA, USA), and 10% Human Serum (Sigma, St. Louis, MO, USA). 3000 Cells (0.1×10^6/mL) were seeded in each well of 384-well plate and were treated for 24 hours in a humidified chamber with 5% CO2. Cell viability was determined by CellTiter-Glo as described by the manufacturer's instructions (Promega Corporation, Madison, WI, USA). Responses were determined as a percentage of the control treated cells and the effective concentration (EC50) to induce a 50% decrease in cell viability were determined from sigmoidal dose-response curves using Dotmatics (Dotmatics Software Company, Bishops Stortford, Hertfordshire, England).

RS4;11 cells = assay: Cell viability assay (CellTiter-Glo) in RS4;11 cell line; type: cell-based; conditions: 24 hours, 10% Human Serum, 50% decrease in cell viability
Excerpt: as §1, §2

Structure (SMILES)	pEC50 (Molt-4 cells)	pEC50 (RS4;11 cells)
CO[C@H]1CC[C@H](CNc2ccc(S(=O)(=O)NC(=O)c3ccc(N4CCN5CC6=C(c7ccc(Cl)cc7)CC(C)(C)C[C@H]6OCCCOC[C@@H]5C4)cc3N3CCCOc4nc5[nH]ccc5cc43)cc2[N+](=O)[O-])OC1 [Example 13, 4-((4aS,10aR)-14-(4-chlorophenyl)-12,12-dimethyl-1,2,4a,5,8,9,10a,11,13,15-decahydro-7H,12H-benzo[f]pyrazino[2,1-c][1,8]dioxa[4]azacycloundecin-3(4H)-yl)-2-(3,4-dihydro-2H-pyrrolo[3′,2′:5,6]pyrido[2,3-b][1,4]oxazepin-1(7H)-yl)-N-((4-((((2R,5S)-5-methoxytetrahydro-2H-pyran-2-yl)methyl)amino)-3-nitrophenyl)sulfonyl)benzamide]	5.77	8.53
CC1(C)CC(c2ccc(Cl)cc2)=C2CN3CCN(c4ccc(C(=O)NS(=O)(=O)c5ccc(NC[C@H]6C[C@](O)(C7CCC7)C6)c([N+](=O)[O-])c5)c(N5CCCOc6nc7[nH]ccc7cc65)c4)C[C@H]3COCCCO[C@@H]2C1 [Example 15, 4-((4aS,10aR)-14-(4-chlorophenyl)-12,12-dimethyl-1,2,4a,5,8,9,10a,11,13,15-decahydro-7H,12H-benzo[f]pyrazino[2,1-c][1,8]dioxa[4]azacycloundecin-3(4H)-yl)-2-(3,4-dihydro-2H-pyrrolo[3′,2′:5,6]pyrido[2,3-h][1,4]oxazepin-1(7H)-yl)-N-((4-((((1s,3s)-1-hydroxy-[1,1′-bi(cyclobutan)]-3-yl)methyl)amino)-3-nitrophenyl)sulfonyl)benzamide]	5.59	8.25
CC1(C)CC(c2ccc(Cl)cc2)=C2CN3CCN(c4ccc(C(=O)NS(=O)(=O)c5ccc(NC[C@H]6C[C@](O)(CF)C6)c([N+](=O)[O-])c5)c(N5CCCOc6nc7[nH]ccc7cc65)c4)C[C@H]3COCCCO[C@@H]2C1 [Example 16, 4-((4aS,10aR)-14-(4-chlorophenyl)-12,12-dimethyl-1,2,4a,5,8,9,10a,11,13,15-decahydro-7H,12H-benzo[f]pyrazino[2,1-c][1,8]dioxa[4]azacycloundecin-3(4H)-yl)-2-(3,4-dihydro-2H-pyrrolo[3′,2′:5,6]pyrido[2,3-h][1,4]oxazepin-1(7H)-yl)-N-((4-((((1s,3s)-3-(fluoromethyl)-3-hydroxycyclobutyl)methyl)amino)-3-nitrophenyl)sulfonyl)benzamide]	5.90	8.82
CC1(C)CC(c2ccc(Cl)cc2)=C2CN3CCN(c4ccc(C(=O)NS(=O)(=O)c5ccc(NCC6(O)COC6)c([N+](=O)[O-])c5)c(N5CCCOc6nc7[nH]ccc7cc65)c4)C[C@H]3COCCCO[C@@H]2C1 [Example 17, 4-((4aS,10aR)-14-(4-chlorophenyl)-12,12-dimethyl-1,2,4a,5,8,9,10a,11,13,15-decahydro-7H,12H-benzo[f]pyrazino[2,1-c][1,8]dioxa[4]azacycloundecin-3(4H)-yl)-2-(3,4-dihydro-2H-pyrrolo[3′,2′:5,6]pyrido[2,3-b][1,4]oxazepin-1(7H)-yl)-N-((4-(((3-hydroxyoxetan-3-yl)methyl)amino)-3-nitrophenyl)sulfonyl)benzamide]	6.14	8.55
CC1(C)CC(c2ccc(Cl)cc2)=C2CN3CCN(c4ccc(C(=O)NS(=O)(=O)c5ccc(NCC6(O)CCOCC6)c([N+](=O)[O-])c5)c(N5CCCOc6nc7[nH]ccc7cc65)c4)C[C@H]3COCCCO[C@@H]2C1 [Example 18, 4-((4aS,10aR)-14-(4-chlorophenyl)-12,12-dimethyl-1,2,4a,5,8,9,10a,11,13,15-decahydro-7H,12H-benzo[f]pyrazino[2,1-c][1,8]dioxa[4]azacycloundecin-3(4H)-yl)-2-(3,4-dihydro-2H-pyrrolo[3′,2′:5,6]pyrido[2,3-b][1,4]oxazepin-1(7H)-yl)-N-((4-(((4-hydroxytetrahydro-2H-pyran-4-yl)methyl)amino)-3-nitrophenyl)sulfonyl)benzamide]	6.37	8.84
CC1(C)CC(c2ccc(Cl)cc2)=C2CN3CCN(c4ccc(C(=O)NS(=O)(=O)c5ccc(OCC6(F)CCN(C7COC7)CC6)c([N+](=O)[O-])c5)c(N5CCCOc6nc7[nH]ccc7cc65)c4)C[C@H]3COCCCO[C@@H]2C1 [Example 19, 4-((4aS,10aR)-14-(4-chlorophenyl)-12,12-dimethyl-1,2,4a,5,8,9,10a,11,13,15-decahydro-7H,12H-benzo[f]pyrazino[2,1-c][1,8]dioxa[4]azacycloundecin-3(4H)-yl)-2-(3,4-dihydro-2H-pyrrolo[3′,2′:5,6]pyrido[2,3-b][1,4]oxazepin-1(7H)-yl)-N-((4-((4-fluoro-1-(oxetan-3-yl)piperidin-4-yl)methoxy)-3-nitrophenyl)sulfonyl)benzamide]	6.88	9.06
C[C@@H]1CO[C@@H](COc2ccc(S(=O)(=O)NC(=O)c3ccc(N4CCN5CC6=C(c7ccc(Cl)cc7)CC(C)(C)C[C@H]6OCCCOC[C@@H]5C4)cc3N3CCCOc4nc5[nH]ccc5cc43)cc2[N+](=O)[O-])CO1 [Example 20, 4-((4aS,10aR)-14-(4-chlorophenyl)-12,12-dimethyl-1,2,4a,5,8,9,10a,11,13,15-decahydro-7H,12H-benzo[f]pyrazino[2,1-c][1,8]dioxa[4]azacycloundecin-3(4H)-yl)-2-(3,4-dihydro-2H-pyrrolo[3′,2′:5,6]pyrido[2,3-b][1,4]oxazepin-1(7H)-yl)-N-((4-(((2R,5R)-5-methyl-1,4-dioxan-2-yl)methoxy)-3-nitrophenyl)sulfonyl)benzamide]	5.79	8.28
C[C@@H]1CC[C@H](CNc2ccc(S(=O)(=O)NC(=O)c3ccc(N4CCN5CC6=C(c7ccc(Cl)cc7)CC(C)(C)C[C@H]6OCCCOC[C@@H]5C4)cc3N3CCCOc4nc5[nH]ccc5cc43)cc2[N+](=O)[O-])OC1 [Example 21, 4-((4aS,10aR)-14-(4-chlorophenyl)-12,12-dimethyl-1,2,4a,5,8,9,10a,11,13,15-decahydro-7H,12H-benzo[f]pyrazino[2,1-c][1,8]dioxa[4]azacycloundecin-3(4H)-yl)-2-(3,4-dihydro-2H-pyrrolo[3′,2′:5,6]pyrido[2,3-b][1,4]oxazepin-1(7H)-yl)-N-((4-((((2R,5R)-5-methyltetrahydro-2H-pyran-2-yl)methyl)amino)-3-nitrophenyl)sulfonyl)benzamide]	5.48	8.31
COCCN1CCC(F)(COc2ncc(S(=O)(=O)NC(=O)c3ccc(N4CCN5CC6=C(c7ccc(Cl)cc7)CC(C)(C)C[C@H]6OCCCOC[C@@H]5C4)cc3N3CCCOc4nc5[nH]ccc5cc43)cc2Cl)CC1 [Example 22, N-((5-chloro-6-((4-fluoro-1-(2-methoxyethyl)piperidin-4-yl)methoxy)pyridin-3-yl)sulfonyl)-4-((4aS,10aR)-14-(4-chlorophenyl)-12,12-dimethyl-1,2,4a,5,8,9,10a,11,13,15-decahydro-7H,12H-benzo[f]pyrazino[2,1-c][1,8]dioxa[4]azacycloundecin-3(4H)-yl)-2-(3,4-dihydro-2H-pyrrolo[3′,2′:5,6]pyrido[2,3-b][1,4]oxazepin-1(7H)-yl)benzamide]	6.12	8.56
C[C@H]1CC[C@H](CNc2ccc(S(=O)(=O)NC(=O)c3ccc(N4CCN5CC6=C(c7ccc(Cl)cc7)CC(C)(C)C[C@H]6OCCCOC[C@@H]5C4)cc3N3CCCOc4nc5[nH]ccc5cc43)cc2[N+](=O)[O-])OC1 [Example 23, 4-((4aS,10aR)-14-(4-chlorophenyl)-12,12-dimethyl-1,2,4a,5,8,9,10a,11,13,15-decahydro-7H,12H-benzo[f]pyrazino[2,1-c][1,8]dioxa[4]azacycloundecin-3(4H)-yl)-2-(3,4-dihydro-2H-pyrrolo[3′,2′:5,6]pyrido[2,3-h][1,4]oxazepin-1(7H)-yl)-N-((4-((((2R,5S)-5-methyltetrahydro-2H-pyran-2-yl)methyl)amino)-3-nitrophenyl)sulfonyl)benzamide]	< 5.00	8.28
CO[C@H]1C[C@@H](CNc2ccc(S(=O)(=O)NC(=O)c3ccc(N4CCN5CC6=C(c7ccc(Cl)cc7)CC(C)(C)C[C@H]6OCCCOC[C@@H]5C4)cc3N3CCCOc4nc5[nH]ccc5cc43)cc2[N+](=O)[O-])C1 [Example 24]	< 5.00	8.31
COC1(CNc2ccc(S(=O)(=O)NC(=O)c3ccc(N4CCN5CC6=C(c7ccc(Cl)cc7)CC(C)(C)C[C@H]6OCCCOC[C@@H]5C4)cc3N3CCCOc4nc5[nH]ccc5cc43)cc2[N+](=O)[O-])CCOCC1 [Example 26, 4-((4aS,10aR)-14-(4-chlorophenyl)-12,12-dimethyl-1,2,4a,5,8,9,10a,11,13,15-decahydro-7H,12H-benzo[f]pyrazino[2,1-c][1,8]dioxa[4]azacycloundecin-3(4H)-yl)-2-(3,4-dihydro-2H-pyrrolo[3′,2′:5,6]pyrido[2,3-b][1,4]oxazepin-1(7H)-yl)-N-((4-(((4-methoxytetrahydro-2H-pyran-4-yl)methyl)amino)-3-nitrophenyl)sulfonyl)benzamide]	< 5.00	8.36
